Patent US20070015810A1, “5(R)-Substituted Pyrazoline Compounds, their Preparation and Use as Medicaments” (LABORATORIOS DEL DR. ESTEVE, S.A., priority 2005, published 2007)
Where a name gives a salt, the structure may show the parent alone.

Key:
[1] = molecular target: CB1-receptor (UniProt P20272); test: In-vitro determination of affinity (binding) to the CB1-receptor, radioligand [3H]-CP55940; conditions: Pharmacological methods part I
Text: 1. In-vitro determination of affinity to CB1CB2-Receptors
The in-vitro determination of the affinity of the inventive substituted pyrazoline compounds to CB1/CB2-Rezeptors is carded out as described in the publication of Ruth A. Ross, Heather C. Brockie et al., “Agonist-inverse agonist characterization at CB1 and CB2 cannabinoid receptors of L-759633, L759656 and AM630”, British Journal of Pharmacology, 126, 665-672, (1999), whereby the transfected human CB1 and CB2 receptors of Receptor Biology, Inc. are used. The radioligand used for both receptors is [^3H]-CP55940. The respective parts of the description is hereby incorporated by reference and forms part of the present disclosure. […]
Binding affinity to CB1 receptor was evaluated according to a modification of the method described by Govaerts et al., Eur J Pharmac Sci 23, 233-243 (2004). […]
Briefly, cerebellum from male wistar rats (250-300 g) were carefully dissected on ice and homogenates were prepared with Potter-Helveheim in a cold 50 mM Tris-HCl solution containing 5 mM MgCl2, 1 mM EDTA and 0.25 M sucrose, pH 7.4. […] Total protein concentration was determined using the Bio-Rad Lowry method based kit. […] Compounds were present at various concentrations and the non specific binding was determined in the presence of 10 μM HU-210. […]
Binding data were analyzed by non-linear regression with the software GraphPad Prism Version 3.03. […]

[2] = molecular target: T1, recombinant human cannabinoid 1 receptor (CB1) (Homo sapiens, UniProt P21554); test: [35S]GTPγS binding assay, antagonism to CB1-receptor in CHO cell membranes; type: biochemical; conditions: compound 1 μM versus agonist WIN 55,212-2; 100% = difference between maximal WIN 55,212-2 effect alone and with Rimonabant (1 μM)
T1 construct: expressed in transfected cells; membrane preparation
Protocol: VI. In Vitro Determination of Antagonism to CB1-Receptor
Chinese hamster ovary (CHO) cells stably expressing recombinant human cannabinoid 1 receptor (CB1) were cultured in nutrient mixture Ham's F 12 supplemented with 10% heat-inactivated fetal bovine serum, 2 mM L-glutamine, 50 U/ml penicillin, 50 U/ml streptomycin and 0.5 mg/ml geneticin. In order to obtain cells, culture flasks were washed twice with phosphate buffered saline and scraped. Then, cells were collected by centrifugation (200×g, 10 min) and stored dry at −80° C. Cells were homogenized in ice-cold 20 mM HEPES, 10 mM EDTA (pH 7.5) and centrifuged at 40,000×g for 15 min at 4° C. The membrane pellet was resuspended in 20 mM HEPES, 0.1 mM EDTA (pH 7.5) and centrifuged for 15 min at 4° C. The final membrane pellet was resuspended in 20 mM HEPES, 0.1 mM EDTA (pH 7.5), and divided in aliquots and stored at −80° C. until use.
The reaction was performed in 96-well plates. […] Radioactivity was determined using a Wallac Microbeta Trilux. […]
The antagonism of the pyrazoline compounds of general formula I to the CB1-receptor was determined according to the method described in Pharmacological methods, part VI (table 2).

[3] = Effect of continued administration on body weight in rats; type: in vivo; conditions: 10 mg/kg i.p. once daily
Protocol: V. Determination of the Effect of Continued Administration of the Inventive Compounds on Body Weight in Rats
The weight of the animals was measured for 36 days, and the data grouped into 3 periods for analysis. Period 1, days 1-8 (period for adaptation of the animals to the environmental conditions: one week without treatment plus first day of treatment); Period 2, days 9-22 (treatment period: two weeks); Period 3, days 23-36 (escape treatment period: two weeks). The administration of the drugs started on day 8, immediately after the animal was weighted, and finished on day 21. The treatment period ranges between one day after first administration and one day after last administration. The drugs were administered i.p. once daily. For comparative purposes, absolute weights were transformed into relative percentages (each weight was divided by that of day 8 and multiplied by 100). […] All results are expressed as mean±S.E.M.
The dependence of body-weight (expressed as a percentage relative to day 8) on time (number of days after inclusion in the study) and treatment was assessed by a two-way (time, treatment) analysis of variance (ANOVA) with repeated measures on the time factor. […] The differences between pairs of curves (treatments) were analyzed using appropriate contrasts within the ANOVA test. […]

[4] = Chronic administration in animals made obese by a simplified cafeteria diet; type: in vivo, rats

T1 sequence (P21554 whole entry): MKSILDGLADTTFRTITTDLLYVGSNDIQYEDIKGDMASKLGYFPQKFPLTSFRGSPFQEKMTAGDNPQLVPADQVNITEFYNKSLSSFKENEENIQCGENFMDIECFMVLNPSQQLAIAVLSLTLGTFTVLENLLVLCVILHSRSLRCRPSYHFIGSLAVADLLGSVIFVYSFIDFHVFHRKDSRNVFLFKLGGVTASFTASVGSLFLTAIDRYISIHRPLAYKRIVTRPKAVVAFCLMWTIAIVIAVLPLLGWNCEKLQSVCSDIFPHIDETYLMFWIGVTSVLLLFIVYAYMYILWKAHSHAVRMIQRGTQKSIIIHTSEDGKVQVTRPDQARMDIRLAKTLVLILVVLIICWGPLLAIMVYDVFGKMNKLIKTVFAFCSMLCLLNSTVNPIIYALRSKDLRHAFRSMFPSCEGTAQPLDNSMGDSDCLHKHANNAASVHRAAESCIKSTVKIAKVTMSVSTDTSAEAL

Structure (SMILES) | IC50 [1] [nM] | Antagonism [%] [2] [%] | effect on body weight ([3]; days 8-21, FIG. 1) | recovery of weight after treatment ([3]; escape period days 23-36, FIG. 1) | body weight on chronic administration ([4]; animals made obese by cafeteria diet (high-fat diet, chocolate, ground peanuts)) | body weight after 28 days of drug treatment versus vehicle-treated controls ([4]; obese rats, 28 days of treatment)
O=C(NN1CCCCC1)C1=NN(c2ccc(Cl)cc2Cl)[C@@H](c2ccc(Cl)cc2)C1 [A, (R)-N-piperidinyl-5-(4chlorophenyl)-1-(2,4-dichlorophenyl)-4,5-dihydro-1H-pyrazole-3-carboxamide] | 16.1 | 106 | stronger action than the racemate | slower recovery of weight | significantly decreased body weight | lower than those of the vehicle-treated controls
O=C(NN1CCCCC1)C1=NN(c2ccc(Cl)cc2Cl)[C@@H](c2ccc(Cl)cc2)C1 [A-Hydrochloride] | 20 | 113 | – | – | – | –
